Reference: patent publication US7271158B2, “Treatment of rumen acidosis with α-amylase inhibitors” (Pfizer Inc., priority 2000, dated 2007)

Columns and labels:
[1] = biological target: rumen fluid supernatant amylases; experiment: Rumen bacterial amylase assay, protocol 2 (amylose azure); details: read-out: Average IC50, rumen fluid amylase screen
Salm. enteritidis = experiment: Minimum inhibitory concentrations in aerobes (agar dilution)
[2] = biological target: rumen fluid supernatant amylases; experiment: Rumen bacterial amylase assay, protocol 1 (Sigma amylase kit 577); type: biochemical, rumen bacteria, Hereford×Friesian calves; details: rumen fluid amylase screen using Sigma kit 577
Description: Rumen Bacterial Amylase Assay—Protocol 1
The enzymatic reactions involved in the assay are as follows:
5 ET-G7PNP→(α-amylase)→2 ET-G5+2 G2PNP+2 ET-G4+2 G3PNP+ET-G3+G4-PNP2 G2PNP+2 G3 PNP→(α-glucosidase)→4 PNP +10 glucose
α-Amylase hydrolyses 4,6-ethylidene-G7-PNP (ET-G7 PNP) to G2, G3 and G4 PNP fragments. α-Glucosidase (α-1,4-glucan glucohydrolase EC 3.2.1.3) hydrolyses G2PNP and G3PNP to yield p-nitrophenol and glucose. Five moles of substrate (ET-G7PNP) is hydrolysed to yield 4 moles of p-nitrophenol p-Nitrophenol absorbs light as 405 nm, and following a two minute lag period the rate of increase in absorbance at 405 nm is directly proportional to α-amylase activity in the well.
Rumen fluid was collected from 4-month-old Hereford×Friesian calves (125–135 kg, supplied by Cwmnant Calves Ltd. Cwmnant. Tregaron. Ceredigion) fed on diet GH 313. The rumen fluid was collected from slaughtered calves into pre-warmed vacuum flasks, as soon as possible after euthanasia. It was then filtered through a double layer of absorbent gauze (Absorbent gauze BP, GAUZ 4 from Robert Bailey plc, Stockport) to remove hay and feed particles. The liquid was centrifuged at a relative centrifugal force of 23,300 for 60 minutes, and the supernatant decanted, avoiding contamination from the loose top layer of the pellet by careful pouring. The supernatant was then aliquoted into 50 ml plastic tubes and frozen at […]. When required for use in an assay the rumen fluid supernatant was thawed by standing the tubes in cold water. Test compounds or controls were dispensed into the 96-well assay plate at 4 μl/well. 100 μl per well of Sigma amylase reagent 577 (made up to half the volume described in the instructions (i.e. 10 ml for a 577-20 vial)) was then added to each well, followed by 100 μl per well of rumen fluid supernatant. A T=0 reading at 405 nm was taken at this stage using an Anthos plate reader. The plate was then incubated at room temperature or 37° C. until an optical density window of approximately 1.000U was seen (typically one hour at 37° C. or three hours at room temperature). A second reading was taken at 405 nm, and the first reading subtracted from it. Active compounds cause a reduction in the optical density readings when compared to the control without the agent being tested.

[3] = tested on: rumen fluid fermentation (RUSITEC chronic acidosis model); experiment: RUSITEC rumen simulation, chronic acidosis model: Example 8 and acarbose; type: cell-based, cow
Method: RUSITEC Result using Example 8 and Acarbose
Daily maintenance procedures as previously described for Acarbose.
Rumen fluid donor cow—Fed GH313Pellets plus barley straw.
Daily Feed—30 g GH313 pellets plus 2.5 g chopped barley straw.
Acarbose: 1 tablet added to each bag to give 100 mg/vessel/d
Example 8: Eight×57 mg pre-weighed samples stored in fridge in […]. On the day before the feed bags were to be placed in RUSITEC, a 57 mg sample was dissolved in 2.28 ml buffer (25 mg/ml). 0.21 ml of this solution was added to 1.9 ml buffer to give a 2.5 mg/ml solution. 1 ml of each solution was added to a prepared feed bag to give 25 and 2.5 mg/vessel/d. and dried overnight at room temperature.

CC1OC(OC2C(CO)OC(OC3C(CO)OC(O)C(O)C3O)C(O)C2O)C(O)C(O)C1NC1C=C(CO)C(O)C(O)C1O (stereo not shown) [Acarbose, acarbose]
IC50 [1]: 2.39 µM
MIC (Salm. enteritidis; Salm. enteritidis B1218): >128 mg/L
MIC (Salm. enteritidis; Salm. enteritidis B1227): >128 mg/L
MIC (Salm. enteritidis; Salm. enteritidis B1231): >128 mg/L
MIC (Salm. enteritidis; Salm. enteritidis B1232): >128 mg/L
MIC (Salm. enteritidis; Salm. enteritidis B1233): >128 mg/L
MIC (Salm. enteritidis; Salm. enteritidis B1235): >128 mg/L
MIC (Salm. enteritidis; Salm. enteritidis B1240): >128 mg/L
MIC (Salm. enteritidis; Salmonella enterica, ENTERITIDIS): > 128 mg/L
IC50 [2]: 2.03 µM
increase in mean daily pH ([3]; 0.2 mM): 0.7 units
proportional increase in butyrate production ([3]; 100 mg per vessel per day, treatment period vs control period (no treatment: 1%)): 113%
change in total VFA production ([3]; 100 mg per vessel per day, vs preceding control period (no treatment: −11%)): −15%
